Assay [1] has as its target T1, DHPS (Homo sapiens, UniProt P49366).
T1 construct: host or cells: E. coli BL21 (DE3)
T1 sequence (P49366 1-369): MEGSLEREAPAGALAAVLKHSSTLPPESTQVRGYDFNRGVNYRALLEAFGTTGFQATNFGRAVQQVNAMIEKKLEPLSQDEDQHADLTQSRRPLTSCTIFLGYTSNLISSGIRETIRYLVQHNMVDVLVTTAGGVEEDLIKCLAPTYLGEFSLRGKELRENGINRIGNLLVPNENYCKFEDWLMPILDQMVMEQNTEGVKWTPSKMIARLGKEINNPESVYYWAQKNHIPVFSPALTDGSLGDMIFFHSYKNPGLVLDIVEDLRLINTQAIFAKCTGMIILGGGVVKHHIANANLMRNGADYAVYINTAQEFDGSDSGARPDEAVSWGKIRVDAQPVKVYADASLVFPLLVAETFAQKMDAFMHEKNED
Put plainly: Hyp'Assay: cell-free eIF5A hypusination in 96-well plates (recombinant eIF5A, DHPS, DOHH; anti-hypusine antibody Hpu24), substance present in the DHPS step. Type of assay: biochemical. The note with it: for hypusination signal, Mean (quantification from Figure 3B): control 100,0; for hypusination signal, Mean (quantification from Figure 5A): control 98,5. Here is the method:
The principle of the Hyp’Assay (Fig 2A) is to perform eIF5A hypusination reaction in 96-well plates, allow eIF5A to adsorb to the plate, incubate with an anti-hypusine antibody and a secondary antibody conjugated to HRP and reveal hypusination using TMB as a substrate.
(§1) […] Then 10 μL containing 1 μg of DOHH with 10 μM Fe^2+ (H8FeN2O8S2^. 6H2O) were added. After 1 h proteins were analyzed by Western Blot using antibodies toward DHPS, DOHH, Hypusine, and eIF5A.
(§2) The cell-free reaction described in 4.4 is performed in triplicates in a 96-wells plate (MaxiSorp, ThermoFisher) in the presence of 3 μg of eIF5A, 2 μg of DHPS, and 2 μg of DOHH by well. The reaction product, hypusinated eIF5A, is adsorbed onto the plate overnight at 4°C. The plate is washed (100 μL/well) thrice with PBS-T (PBS– 0.05% Tween20), then saturated with 1% non-fat dry milk in PBS-T for 2 h at room temperature. The plate is washed thrice with PBS-T and incubated overnight at 4°C with the anti-hypusine antibody (1:2000 in saturation buffer, 50 μL/well). The next day and after 5 washes with PBS-T, HRP-coupled anti-rabbit secondary antibody diluted 1:5000 in saturation buffer (50 μL/well) is added for 2 h at room temperature.

Assay [2] deals with T1, DHPS. Kind of assay: Hyp'Assay without DOHH: deoxyhypusination of eIF5A revealed with Hpu98 antibody. Type of assay: biochemical. Conditions: 5 μM spermidine; CTRL 100,0; inhibitor concentration not given.
Source text: To address this issue, we compared the ability of GC7 to inhibit DHPS or DOHH by adding GC7 during the first step of the Hyp’Assay; when DHPS mediates the deoxyhypusination reaction (Fig 2A), or only during the second step, when DOHH hydroxylate deoxyhypusinated eIF5A. […] This confirms the specificity of GC7 towards DHPS. When finding new hypusination inhibitors adding them during the first or the second step of the Hyp’Assay will allow us to determine if the inhibition affects DHPS or DOHH. Another way to discriminate between DHPS or DOHH inhibitors would be to use Hpu98, an antibody that recognized both hypusinated and deoxyhypusinated eIF5A, instead of Hpu24, which is specific for hypusinated eIF5A [18]. […] We performed a new Hyp’Assay by omitting DOHH in the reaction mix and using the Hpu98 antibody. First, we performed a dose response experiment with spermidine at pH: 8.0 and 9.0 (Fig 3E). The Hyp’Assay allows the detection of deoxyhypusinated eIF5A in a spermidine-dependent manner. Under these conditions, deoxyhypusination was equally efficient at both pH tested. […] We also tested the ability of GC7 (Fig 3F) and CPX or EDTA (Fig 3G) to inhibit DHPS. […] This provided us with another method to distinguish between DHPS and DOHH inhibitors.
as §2

A further assay concerns the target T2, DOHH (Homo sapiens, UniProt Q9BU89).
T2 construct: pelB leader (N); host or cells: E. coli BL21 (DE3)
T2 sequence (Q9BU89 1-302): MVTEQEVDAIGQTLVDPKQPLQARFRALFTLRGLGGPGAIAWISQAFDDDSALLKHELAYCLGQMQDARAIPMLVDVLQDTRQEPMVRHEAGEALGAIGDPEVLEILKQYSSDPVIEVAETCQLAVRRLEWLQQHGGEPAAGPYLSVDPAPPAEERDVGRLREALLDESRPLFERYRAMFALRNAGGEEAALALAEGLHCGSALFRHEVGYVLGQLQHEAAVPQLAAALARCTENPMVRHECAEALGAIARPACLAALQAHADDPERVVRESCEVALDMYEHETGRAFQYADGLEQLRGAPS
Put plainly: Hyp'Assay, substance added after the deoxyhypusination reaction (DOHH step). Type of assay: biochemical. The note with it: for hypusination signal, Mean (quantification from Figure 3C): control 100,0. As to the method:
We then tested the ability of DOHH inhibitors to inhibit eIF5A hypusination using the Hyp’Assay. During the Hyp’Assay, DOHH inhibitors were added after the deoxyhypusination reaction.
To address this issue, we compared the ability of GC7 to inhibit DHPS or DOHH by adding GC7 during the first step of the Hyp’Assay; when DHPS mediates the deoxyhypusination reaction (Fig 2A), or only during the second step, when DOHH hydroxylate deoxyhypusinated eIF5A. […] When finding new hypusination inhibitors adding them during the first or the second step of the Hyp’Assay will allow us to determine if the inhibition affects DHPS or DOHH. Another way to discriminate between DHPS or DOHH inhibitors would be to use Hpu98, an antibody that recognized both hypusinated and deoxyhypusinated eIF5A, instead of Hpu24, which is specific for hypusinated eIF5A [18]. […] We performed a new Hyp’Assay by omitting DOHH in the reaction mix and using the Hpu98 antibody. First, we performed a dose response experiment with spermidine at pH: 8.0 and 9.0 (Fig 3E). […] We also tested the ability of GC7 (Fig 3F) and CPX or EDTA (Fig 3G) to inhibit DHPS.
as §1, §2

The test system of assay [3] is eIF5A hypusination in MCF7 cells. Kind of assay: eIF5A hypusination in intact MCF7 cells, Western blot. Conditions: 40 μM, 24 h, Ctrl 100, 4 experiments. Format: cell-based, human. As to the method: We tested the ability of the GC7 analogs to inhibit hypusination in intact cells. MCF-7 cells (Fig 5B), a classical model of breast cancer cell line, and HT29 cells (Fig 5C), a cell model of colorectal cancer, were treated with 40 μM of GC7, 1, 2, 3, and 4 for 24h. Cells were lysed and analyzed by Western blot. As observed, none of the molecules modified eIF5A expression. […] GC7 analogs inhibited hypusination from 35 to 55%.
The human breast cancer cell line MCF7 (HTB-22 ATCC) and colorectal adenocarcinoma HT29 (HTB-38 ATCC) were cultured in DMEM (Gibco) supplemented with 10% FBS (Dutscher), 10 U/mL penicillin, and […] streptomycin. 1 mM of aminoguanidine was added to the medium to inhibit the degradation of GC7 and polyamines by amine oxidase from the serum and the production of reactive oxygen species. Cells were maintained at 37°C, 5% CO2 in a humid atmosphere.
After treatment, cells were washed with ice-cold PBS and lysed in RIPA Buffer (50 mM Tris pH 7.5, 150 mM NaCl, 0.1% SDS, 0.5% Na Deoxycholate, 5 mM NaF, 2.5 mM Na4P2O7, 1% NP4O) containing a protease inhibitor cocktail (complete Roche). 10 μg of proteins were separated by SDS PAGE and transferred to a PVDF membrane (Immobilon-P Millipore). The membranes were probed with the appropriate primary antibody that was detected by horseradish peroxidase-conjugated secondary antibody (Jackson Immunoresearch) and visualized by chemiluminescence (ECL Amersham RPN 3244) using a Fuji LAS-4000 imager. ImageJ® software was used to quantify band intensity and the ratios of proteins of interest were normalized to a loading control. Full-length Western blots are provided in the supplementary data (S19, S20 Figs).
(In general: In western blotting, separated proteins are transferred to a membrane and probed.)

The mark [4] stands for this setting: concentration 1 (no unit on page; Fig 3B dose-response 0 to 1 mM).
Setting [5] is: concentration 10 (no unit on page; Fig 3B dose-response 0 to 1 mM).
Setting [6] is: concentration 100 (no unit on page; Fig 3B dose-response 0 to 1 mM).
Setting [7] is: concentration 1000 (no unit on page; Fig 3B dose-response 0 to 1 mM).
Setting [8] is: concentration 1 (no unit on page; Fig 3C dose-response 0 to 100 μM).
Setting [9] is: concentration 10 (no unit on page; Fig 3C dose-response 0 to 100 μM).
Where [10] appears, read: concentration 100 (no unit on page; Fig 3C dose-response 0 to 100 μM).

In general, inhibition refers to the percentage by which the read-out fell short of the control.

In the case of `CCNCCCNCCCNCCCNCC` [BENSPM, N1,N11-diethylnorspermine], the decrease in hypusination on DHPS [1] (at 100 μM) is 12%. Further, the inhibition of hypusination on DHPS [1] (at 1 mM) amounted to 43%. The “hypusination signal, Mean (quantification from Figure 3B)” value at DHPS [1] (setting [4]) was 97,3; on DHPS [1] (setting [5]), 101,9; on DHPS [1] (setting [6]) it was 88,5; at DHPS [1] (setting [7]) it was 42,9.

On to `Cc1cc(C2CCCCC2)n(O)c(=O)c1` [CPX, ciclopirox], for which the “Relative deoxyhypusination of eIF5A, Mean (quantification from Figure 3F, 3G)” value on DHPS [2] is 101,2 a.u. Further, the “hypusination signal, Mean (quantification from Figure 3C)” value on DOHH (setting [8]) was 97,78; at DOHH (setting [9]), 85,18; at DOHH (setting [10]) it was 55,02. The maximal inhibition at DOHH (dose-response 0 to 100 μM) is listed as 50%.

In the case of `CC(=O)N(O)CCCCCNC(=O)CCC(=O)N(O)CCCCCNC(=O)CCC(=O)N(O)CCCCCN` [DFX, deferoxamine], the entries for the “hypusination signal, Mean (quantification from Figure 3C)” value on DOHH (setting [8]), at DOHH (setting [9]) and on DOHH (setting [10]) were 28,29, 58,42 and 34,21, respectively.

With `C[S+](C)[O-]` [DMSO], the inhibition of hypusination at DHPS [1] (10% DMSO of the total reaction mixture) amounted to 33%. For the same compound, the “effect on hypusination of eIF5A” value on DHPS [1] (standard concentrations of DMSO (less than 10%)) is “not affected”.

For the compound `O=C(O)CN(CCN(CC(=O)O)CC(=O)O)CC(=O)O` [EDTA], the “Relative deoxyhypusination of eIF5A, Mean (quantification from Figure 3F, 3G)” value at DHPS [2] is reported as 97,63 a.u. This compound showed a maximal inhibition on DOHH (at 100 μM EDTA) of 80%.

In turn, `Nc1nc(=O)c2nc(CNc3ccc(C(=O)N[C@@H](CCC(=O)O)C(=O)O)cc3)cnc2[nH]1` [Folate, folic acid] showed an inhibition at 1 µM against DOHH (at 1 μM) of 50%. Further, the “hypusination signal, Mean (quantification from Figure 3C)” value is on record as 56,38 at DOHH (setting [8]), 57,32 on DOHH (setting [9]) and 65,33 at DOHH (setting [10]).

In the case of `N=C(N)NCCCCO` [compound 1, 4-hydroxybutylguanidine], the “hypusinated eIF5A, Western blot quantification, Mean (Figure 5B)” value in assay [3] came to 65. Also, the “concentration from which inhibition of hypusination was detectable” value on DHPS [1] (5 μM spermidine) came out at 1 µM. For the same compound, the “hypusination signal, Mean (quantification from Figure 5A)” value is recorded as 70,7 at DHPS [1] (concentration 1 (no unit on page; Fig 5A 0 to 1 mM), 5 μM spermidine); 62,5 on DHPS [1] (concentration 10 (no unit on page; Fig 5A 0 to 1 mM), 5 μM spermidine); 61,5 at DHPS [1] (concentration 100 (no unit on page; Fig 5A 0 to 1 mM), 5 μM spermidine); 55,2 at DHPS [1] (concentration 1000 (no unit on page; Fig 5A 0 to 1 mM), 5 μM spermidine).

`NCCCCN` [putrescine]: at DHPS [1] (at 1 mM), the inhibition at 1000 µM amounted to 70%. Besides, the “hypusination signal, Mean (quantification from Figure 3B)” value at DHPS [1] (setting [4]) is on record as 111,3; on DHPS [1] (setting [5]) it was 94,6; on DHPS [1] (setting [6]) it was 95,3; at DHPS [1] (setting [7]) it was 30,5.

As to `NCCCNCCCCNCCCN` [spermine], the “hypusination signal, Mean (quantification from Figure 3C)” value at DOHH (setting [8]) is 69,38; on DOHH (setting [9]), 59,12; on DOHH (setting [10]) it was 54,32. In addition, the “hypusination signal, Mean (quantification from Figure 3B)” value at DHPS [1] (setting [4]) is recorded as 106,1; at DHPS [1] (setting [5]), 114,0; at DHPS [1] (setting [6]), 104,5; on DHPS [1] (setting [7]) it was 111,4. Besides, the “effect on eIF5A hypusination” value at DHPS [1] (concentrations up to 1 mM) was “did not affect eIF5A hypusination”. Besides, on DHPS [1] (dose response compared with spermidine (S3 Fig)), the “use as alternate DHPS substrate” value is “can be used as a substrate by DHPS in the Hyp’Assay, although with lower efficiency than spermidine”. Besides, the “hypusination signal with the substance as substrate, Mean (quantification from Figure S3)” value on DHPS [1] (substrate concentration 0,01 (mM)) is given as -0,07; on DHPS [1] (substrate concentration 0,1 (mM)), 0,01; at DHPS [1] (substrate concentration 0,0001 (mM)), 0,19; on DHPS [1] (substrate concentration 0,001 (mM)), -0,08; on DHPS [1] (substrate concentration 1 (mM)), 2,17; on DHPS [1] (substrate concentration 10 (mM)) it was 21,70. Moreover, the “hypusination signal with the substance as substrate, Mean (quantification from Figure S3)” value on DHPS [1] (substrate concentration 100 (mM)) is 39,64; on DHPS [1] (substrate concentration 1000 (mM)), 28,97.

These data come from publication PMC11819603, “Development of a reliable, sensitive, and convenient assay for the discovery of new eIF5A hypusination inhibitors” (PLOS ONE, 2025).
